Assay results taken from patent US9340547B2, “Pyrrolotriazinone derivatives as inhibitors P13K” (Almirall, S.A., priority 2011, dated 2016).
Read-outs that look alike come from different tables or passages of the source.

Biological target: T1, PI3Kδ (PI3 Kd) (Homo sapiens, UniProt O00329)
T1 construct: purchased Millipore
Experiment: PI3K HTRF enzymatic inhibition assay (cell-free), PI3Kd
Assay type: biochemical
Protocol: PI3K α, β, δ and γ Enzymatic Inhibition Assays
Compounds were screened for their ability to inhibit PI3Kα (PI3Kα), PI3Kβ (PI3 Kb), PI3Kδ (PI3 Kd) and PI3Kγ (PI3 Kg) using a cell-free based PI3K HTRF™ assay (Millipore, ref. #33-017) All reagents to perform the reactions were prepared according to the manufacturer protocol. All PI3K enzymes were recombinant and were purchased at Millipore.
These concentrations were final in the assay. • 3) A reservoir plate containing Adenosine TriPhosphate (ATP) diluted in the Millipore kit buffer was prepared for each isoform. […] Incubation was done for 8 minutes (for all four isoforms) then the reaction was stopped by addition of the Stop solution. The Detection solution was added. These solutions were prepared previously according to the kit specifications.

T1 sequence (O00329 whole entry): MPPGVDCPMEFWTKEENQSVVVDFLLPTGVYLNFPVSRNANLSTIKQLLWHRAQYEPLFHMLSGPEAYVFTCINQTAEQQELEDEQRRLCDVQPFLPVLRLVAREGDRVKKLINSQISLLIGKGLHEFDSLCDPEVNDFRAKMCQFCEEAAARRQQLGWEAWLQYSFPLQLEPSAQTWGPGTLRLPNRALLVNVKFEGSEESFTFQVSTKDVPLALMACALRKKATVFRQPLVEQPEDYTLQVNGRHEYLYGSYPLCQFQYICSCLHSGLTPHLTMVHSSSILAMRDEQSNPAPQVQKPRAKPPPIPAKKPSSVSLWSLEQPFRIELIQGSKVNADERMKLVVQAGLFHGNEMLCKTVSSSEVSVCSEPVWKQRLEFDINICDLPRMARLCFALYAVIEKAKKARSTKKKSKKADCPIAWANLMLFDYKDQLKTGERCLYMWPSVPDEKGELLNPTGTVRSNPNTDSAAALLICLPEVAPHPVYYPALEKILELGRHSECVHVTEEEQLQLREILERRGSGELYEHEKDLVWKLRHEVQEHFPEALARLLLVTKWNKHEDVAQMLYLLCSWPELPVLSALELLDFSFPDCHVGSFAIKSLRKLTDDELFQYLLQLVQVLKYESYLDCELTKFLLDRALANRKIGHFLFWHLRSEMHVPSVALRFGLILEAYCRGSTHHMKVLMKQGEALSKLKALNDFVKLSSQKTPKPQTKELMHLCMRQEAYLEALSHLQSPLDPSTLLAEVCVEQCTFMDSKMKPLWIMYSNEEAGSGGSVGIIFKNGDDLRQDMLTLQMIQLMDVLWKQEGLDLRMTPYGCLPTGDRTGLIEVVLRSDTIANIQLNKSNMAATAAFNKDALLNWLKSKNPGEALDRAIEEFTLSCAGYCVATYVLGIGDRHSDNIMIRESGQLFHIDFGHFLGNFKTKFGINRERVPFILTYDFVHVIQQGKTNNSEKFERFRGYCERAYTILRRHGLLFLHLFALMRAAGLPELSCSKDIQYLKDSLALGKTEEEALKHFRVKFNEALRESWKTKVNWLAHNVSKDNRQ
T1 sequence (P27986 whole entry partner): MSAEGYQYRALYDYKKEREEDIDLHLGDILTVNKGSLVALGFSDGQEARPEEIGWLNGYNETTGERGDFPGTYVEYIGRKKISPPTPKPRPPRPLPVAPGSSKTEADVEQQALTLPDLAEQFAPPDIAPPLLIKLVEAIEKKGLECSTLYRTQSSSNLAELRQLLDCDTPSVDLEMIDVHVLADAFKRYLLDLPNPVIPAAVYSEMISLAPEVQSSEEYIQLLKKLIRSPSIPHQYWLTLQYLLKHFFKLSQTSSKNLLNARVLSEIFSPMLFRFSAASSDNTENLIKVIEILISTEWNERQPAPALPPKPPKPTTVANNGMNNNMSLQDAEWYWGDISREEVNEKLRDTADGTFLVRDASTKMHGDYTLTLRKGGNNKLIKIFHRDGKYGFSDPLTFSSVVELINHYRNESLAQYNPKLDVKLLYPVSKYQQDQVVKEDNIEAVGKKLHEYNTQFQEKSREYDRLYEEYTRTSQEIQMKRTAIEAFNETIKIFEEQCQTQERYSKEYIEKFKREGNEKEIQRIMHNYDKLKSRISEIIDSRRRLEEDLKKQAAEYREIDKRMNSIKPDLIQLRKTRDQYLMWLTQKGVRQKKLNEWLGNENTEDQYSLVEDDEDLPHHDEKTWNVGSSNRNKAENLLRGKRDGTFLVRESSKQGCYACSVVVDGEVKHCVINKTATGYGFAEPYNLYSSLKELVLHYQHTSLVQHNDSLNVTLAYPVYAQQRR

IC50 | IC50 (recombinant PI3 Kd 0.60 nM, PIP2 2 μM, ATP 20 μM, 8 min incubation) | SMILES
38 nM | – | C[C@H](Nc1ncnc(N)c1C#N)c1nn2ccc(C#N)c2c(=O)n1C1CCCOC1 (single isomer, unassigned) [Example 129]
11 nM | – | C[C@H](Nc1ncnc(N)c1C#N)c1nn2ccc(C(F)(F)F)c2c(=O)n1C1CCCOC1 (single isomer, unassigned) [Example 133]
120 nM | – | Cc1ccccc1-n1c(Cn2cnc3c(N)ncnc32)nn2ccc(Cl)c2c1=O [Example 1, 2-((6-Amino-9H-purin-9-yl)methyl)-5-chloro-3-o-tolylpyrrolo[1,2-f][1,2,4]triazin-4(3H)-one]
– | 119 nM | Cc1ccccc1-n1c(CSc2ncnc3[nH]cnc23)nn2ccc(C)c2c1=O [Example 11, 2-((9H-Purin-6-ylthio)methyl)-5-methyl-3-o-tolylpyrrolo[1,2-f][1,2,4]triazin-4(3H)-one]
18 nM | – | CC[C@H](Nc1ncnc2[nH]cnc12)c1nn2cccc2c(=O)n1-c1ccccc1 [Example 15, (S)-2-(1-(9H-Purin-6-ylamino)propyl)-3-phenylpyrrolo[1,2-f][1,2,4]triazin-4(3H)-one]
9 nM | – | CC[C@H](Nc1nc(N)nc2[nH]cnc12)c1nn2cccc2c(=O)n1-c1ccccc1 [Example 17, (S)-2-(1-(2-Amino-9H-purin-6-ylamino)propyl)-3-phenylpyrrolo[1,2-f][1,2,4]triazin-4(3H)-one]
11 nM | – | C[C@H](Nc1ncnc2[nH]cnc12)c1nn2cccc2c(=O)n1-c1ccccc1 [Example 20, (S)-2-(1-(9H-Purin-6-ylamino)ethyl)-3-phenylpyrrolo[1,2-f][1,2,4]triazin-4(3H)-one]
5 nM | – | C[C@H](Nc1nc(N)nc2[nH]cnc12)c1nn2cccc2c(=O)n1-c1ccccc1 [Example 21, (S)-2-(1-(2-Amino-9H-purin-6-ylamino)ethyl)-3-phenylpyrrolo[1,2-f][1,2,4]triazin-4(3H)-one]
347 nM | – | Cc1ccccc1-n1c(Cn2cnc3c(N)ncnc32)nn2ccc(C(F)(F)F)c2c1=O [Example 25, 2-((6-Amino-9H-purin-9-yl)methyl)-3-o-tolyl-5-(trifluoromethyl)pyrrolo[1,2-f][1,2,4]triazin-4(3H)-one]
376 nM | – | Nc1ncnc2c1ncn2Cc1nn2ccc(Cl)c2c(=O)n1Cc1ccccc1 [Example 29]
6570 nM | – | Cc1ccccc1-n1c(Cn2cnc3c(N)ncnc32)nn2ccnc2c1=O [Example 31, 2-((6-amino-9H-purin-9-yl)methyl)-3-o-tolylimidazo[1,2-f][1,2,4]triazin-4(3H)-one]
15 nM | – | C[C@H](Nc1ncnc2[nH]cnc12)c1nn2cccc2c(=O)n1-c1cc(F)cc(F)c1 [Example 37, (S)-2-(1-(9H-Purin-6-ylamino)ethyl)-3-(3,5-difluorophenyl)pyrrolo[1,2-f][1,2,4]triazin-4(3H)-one]
11 nM | – | C[C@H](Nc1ncnc(N)c1C#N)c1nn2cccc2c(=O)n1-c1ccccn1 [Example 43, (S)-4-Amino-6-(1-(4-oxo-3-(pyridin-2-yl)-3,4-dihydropyrrolo[1,2-f][1,2,4]triazin-2-yl)ethylamino)pyrimidine-5-carbonitrile]
29 nM | – | O=c1c2cccn2nc([C@@H]2CCCN2c2ncnc3[nH]cnc23)n1-c1ccccc1 [Example 44, (S)-2-(1-(9H-Purin-6-yl)pyrrolidin-2-yl)-3-phenylpyrrolo[1,2-f][1,2,4]triazin-4(3H)-one]
1 nM | – | C[C@H](Nc1ncnc(N)c1C#N)c1nn2ccc(C(F)F)c2c(=O)n1-c1ccccc1 [Example 47, (S)-4-Amino-6-(1-(5-(difluoromethyl)-4-oxo-3-phenyl-3,4-dihydropyrrolo[1,2-f][1,2,4]triazin-2-yl)ethylamino)pyrimidine-5-carbonitrile]
15 nM | – | Nc1nc(N2CCC[C@H]2c2nn3cccc3c(=O)n2-c2ccccc2)c2nc[nH]c2n1 [Example 56, (S)-2-(1-(2-Amino-9H-purin-6-yl)pyrrolidin-2-yl)-3-phenyl pyrrolo[1,2-f][1,2,4]triazin-4(3H)-one]
6 nM | – | C[C@H](Nc1ncnc2[nH]cnc12)c1nn2ccc(C#N)c2c(=O)n1-c1ccccc1 [Example 61, (S)-2-(1-(9H-Purin-6-ylamino)ethyl)-4-oxo-3-phenyl-3,4-dihydropyrrolo[1,2-f][1,2,4]triazine-5-carbonitrile]
73 nM | – | O=c1c2cccn2nc([C@H](CO)Nc2ncnc3[nH]cnc23)n1-c1ccccc1 [Example 62, (R)-2-(1-(9H-Purin-6-ylamino)-2-hydroxyethyl)-3-phenylpyrrolo[1,2-f][1,2,4]triazin-4(3H)-one]
69 nM | – | C[C@H](Nc1nc(N)nc2[nH]cnc12)c1nn2ccnc2c(=O)n1-c1ccccc1 [Example 64, (S)-2-(1-(2-Amino-9H-purin-6-ylamino)ethyl)-3-phenylimidazo[1,2-f][1,2,4]triazin-4(3H)-one]
1 nM | – | Cc1ccn2nc([C@H](C)Nc3ncnc4[nH]cnc34)n(-c3ccccc3)c(=O)c12 [Example 68, (S)-2-(1-(9H-Purin-6-ylamino)ethyl)-5-methyl-3-phenyl pyrrolo[1,2-f][1,2,4]triazin-4(3H)-one]
7 nM | – | C[C@H](Nc1ncnc2[nH]cnc12)c1nn2ccc(C(F)(F)F)c2c(=O)n1-c1cc(F)cc(F)c1 [Example 90, (S)-2-(1-(9H-Purin-6-ylamino)ethyl)-3-(3,5-difluorophenyl)-5-(trifluoromethyl)pyrrolo[1,2-f][1,2,4]triazin-4(3H)-one]
42 nM | – | C[C@H](Nc1ncnc(N)c1F)c1nn2ccc(C(F)F)c2c(=O)n1-c1cc(F)cc(F)c1 [Example 102, (S)-2-(1-(6-Amino-5-fluoropyrimidin-4-ylamino)ethyl)-5-(difluoromethyl)-3-(3,5-difluorophenyl)pyrrolo[1,2-f][1,2,4]triazin-4(3H)-one]
36 nM | – | C[C@H](Nc1ncnc(N)c1C#N)c1nn2ccc(C#N)c2c(=O)n1-c1cc(Cl)cc(Cl)c1 [Example 104, (S)-2-(1-(6-Amino-5-cyanopyrimidin-4-ylamino)ethyl)-3-(3,5-dichlorophenyl)-4-oxo-3,4-dihydropyrrolo[1,2-f][1,2,4]triazine-5-carbonitrile]
2930 nM | – | C[C@H](Nc1ncnc(N)c1C#N)c1nn2ccc(CN3CCOCC3)c2c(=O)n1-c1ccccc1 [Example 122, (S)-4-Amino-6-(1-(5-(morpholinomethyl)-4-oxo-3-phenyl-3,4-dihydropyrrolo[1,2-f][1,2,4]triazin-2-yl)ethylamino)pyrimidine-5-carbonitrile]
11 nM | – | C[C@H](Nc1ncnc(N)c1C#N)c1nn2cccc2c(=O)n1-c1cn[nH]c1 [Example 124, (S)-4-Amino-6-(1-(4-oxo-3-(1H-pyrazol-4-yl)-3,4-dihydropyrrolo[1,2-f][1,2,4]triazin-2-yl)ethylamino)pyrimidine-5-carbonitrile]
90 nM | – | Cc1nc(-c2ccn3nc([C@H](C)Nc4ncnc5[nH]cnc45)n(-c4cc(F)cc(F)c4)c(=O)c23)no1 [Example 125, (S)-2-(1-(9H-Purin-6-ylamino)ethyl)-3-(3,5-difluorophenyl)-5-(5-methyl-1,2,4-oxadiazol-3-yl)pyrrolo[1,2-f][1,2,4]triazin-4(3H)-one]
89 nM | – | Cc1cc(-n2c([C@H](C)Nc3ncnc(N)c3C#N)nn3cccc3c2=O)n[nH]1 [Example 127, (S)-4-Amino-6-(1-(3-(5-methyl-1H-pyrazol-3-yl)-4-oxo-3,4-dihydropyrrolo[1,2-f][1,2,4]triazin-2-yl)ethylamino)pyrimidine-5-carbonitrile]
24 nM | – | C[C@H](Nc1ncnc(N)c1C#N)c1nn2cccc2c(=O)n1C1CCOCC1 [Example 136, (S)-4-Amino-6-(1-(4-oxo-3-(tetrahydro-2H-pyran-4-yl)-3,4-dihydropyrrolo[1,2-f][1,2,4]triazin-2-yl)ethylamino)pyrimidine-5-carbonitrile]

SMILES | IC50 | IC50 (recombinant PI3 Kd 0.60 nM, PIP2 2 μM, ATP 20 μM, 8 min incubation)
C[C@H](Nc1ncnc(N)c1C#N)c1nn2ccnc2c(=O)n1-c1ccccc1 [Example 50, (S)-4-amino-6-(1-(4-oxo-3-phenyl-3,4-dihydroimidazo[1,2-f][1,2,4]triazin-2-yl)ethylamino)pyrimidine-5-carbonitrile] | 57 nM | –
C[C@H](Nc1ccnc2ccnn12)c1nn2cccc2c(=O)n1-c1ccccc1 [Example 54, (S)-3-Phenyl-2-(1-(pyrazolo[1,5-a]pyrimidin-7-ylamino)ethyl)pyrrolo[1,2-f][1,2,4]triazin-4(3H)-one] | 60 nM | –
Cc1ccc2c(=O)n(-c3ccccc3)c([C@H](C)Nc3ncnc(N)c3C#N)nn12 [Example 71, (S)-4-Amino-6-(1-(7-methyl-4-oxo-3-phenyl-3,4-dihydropyrrolo[1,2-f][1,2,4]triazin-2-yl)ethylamino)pyrimidine-5-carbonitrile] | 9 nM | –
N#Cc1c(N)ncnc1N1CC(F)(F)C[C@H]1c1nn2cccc2c(=O)n1-c1ccccc1 [Example 73, (S)-4-Amino-6-(4,4-difluoro-2-(4-oxo-3-phenyl-3,4-dihydropyrrolo[1,2-f][1,2,4]triazin-2-yl)pyrrolidin-1-yl)pyrimidine-5-carbonitrile] | 31 nM | –
C[C@H](Nc1ncnc(N)c1C#N)c1nn2cc(F)cc2c(=O)n1-c1ccccc1 [Example 75, (S)-4-Amino-6-(1-(6-fluoro-4-oxo-3-phenyl-3,4-dihydropyrrolo[1,2-f][1,2,4]triazin-2-yl)ethylamino)pyrimidine-5-carbonitrile] | 17 nM | –
C[C@H](Nc1ncnc2[nH]cc(F)c12)c1nn2cccc2c(=O)n1-c1ccccc1 [Example 81, (S)-2-(1-(5-Fluoro-7H-pyrrolo[2,3-d]pyrimidin-4-ylamino)ethyl)-3-phenylpyrrolo[1,2-f][1,2,4]triazin-4(3H)-one] | 9 nM | –
